In brackets after ≈: the same amount, converted by molar mass. Where two headings read alike, the source gives them in different places. Where a SMILES comes first, the peptide text is derived from it. Where no end group is shown, it is not given here. [ ]: non-standard residue; d: D form. The star is where a group is joined. Myristoyl = CCCCCCCCCCCCCC(=O)*; Undecanoyl = CCCCCCCCCCC(=O)*; Nonanoyl = CCCCCCCCC(=O)*; Heptanoyl = CCCCCCC(=O)*; Octanoyl = CCCCCCCC(=O)*; Cap = not defined here
How the values were obtained:
Candida albicans = format: cell-based
Experimental: (§1) MICs (minimal inhibitory concentrations) were determined for the hexapeptides of interest using a slightly modified version of the NCCLS (National Committee for Clinical Laboratory Standards) broth microdilution method as described previously (Steinberg et al., AAC 41: 1738, 1997). Briefly, antimicrobial agents were prepared as 10× concentrates in the most appropriate solvent. For the hexapeptide, 0.01% acetic acid containing 0.2% bovine serum albumin as a carrier protein was used. Inocula were prepared by resuspending colonies from a BAP (please spell out this term) in medium and adjusting the suspension to match that of a 0.5 McFarland standard. The suspension was diluted into fresh medium (as recommended by NCCLS for the organism) to give 2×10^5 to 7×10^5 CFU/ml for bacteria or 2×10^3 to 7×10^3 CFU/ml for Candida. After dispensing 100 μl aliquots of the microbial suspension into each well of a 96-well polypropylene microtiter plate, 11 μl of test compound was added. The MIC was defined as the lowest concentration of drug which prevented visible turbidity after 16 to 20 hours (bacteria) or 46 to 50 hours (Candida) at 35° C.

Pseudomonas aeruginosa = format: cell-based; parameters: MIC, lipid length SAR: unit not given here; conditions: for MIC, lipid length SAR: P.aeruginosa
Experimental: as §1

[1] = test system: Salmonella typhimurium 14028S; experiment: MIC, broth microdilution, S. typhimurium; format: cell-based; parameters: unit not given here; conditions: for MIC, lipid length SAR: S.typhimurium; for Anti-microbial activity (MIC): S. typhimurium 14028S
Experimental: as §1

Escherichia coli UB1005 = experiment: MIC, broth microdilution, E. coli; format: cell-based; parameters: unit not given here
Experimental: as §1

P. acnes = experiment: Activity against extended panel of P. acnes; format: cell-based; parameters: unit not given here
From the text: A very promising application for short bioactive peptides is for dermatological indications such as acne.

MRSA = experiment: Kill curve in 10% sheep serum-phosphate buffer against MRSA; format: cell-based, S. aureus; conditions: 10% serum / biological environments
[2] = T.W. Candida #184, azole resistant clinical isolate
[3] = T.W. Candida #185 (CDR1,2), azole resistant clinical isolate
[4] = T.W. Candida #186 (CDR1,2), azole resistant clinical isolate
[5] = T.W. Candida #187 (CDR1,2), azole resistant clinical isolate
[6] = T.W. Candida #192 (CDR1,2), azole resistant clinical isolate
[7] = T.W. Candida #193, azole resistant clinical isolate
[8] = T.W. Candida #194, azole resistant clinical isolate
[9] = T.W. Candida #195, azole resistant clinical isolate
[10] = T.W. Candida #196 (CDR1,2), azole resistant clinical isolate
[11] = T.W. Candida #197, azole resistant clinical isolate
[12] = T.W. Candida #198, azole resistant clinical isolate
[13] = T.W. Candida #199 (CDR1,2), azole resistant clinical isolate

| Compound | Anti-microbial activity (MIC) [1] | Anti-microbial activity (MIC) (Escherichia coli UB1005) | other results |
| --- | --- | --- | --- |
| CC(=O)N1CCN(c2ccc(OCC3COC(Cn4ccnc4)(c4ccc(Cl)cc4Cl)O3)cc2)CC1 (centres unmarked) [Ketoconazole, reference compound] | – | – | MIC (Candida albicans; [2]): 64 µg/mL (≈ 120 µM); MIC (Candida albicans; [3]): 8 µg/mL (≈ 15.1 µM); MIC (Candida albicans; [4]): 8 µg/mL (≈ 15.1 µM); MIC (Candida albicans; [5]): 16 µg/mL (≈ 30.1 µM); MIC (Candida albicans; [6]): 32 µg/mL (≈ 60.2 µM); MIC (Candida albicans; [7]): 8 µg/mL (≈ 15.1 µM); MIC (Candida albicans; [8]): 16 µg/mL (≈ 30.1 µM); MIC (Candida albicans; [9]): 128 µg/mL (≈ 241 µM); MIC (Candida albicans; [10]): 32 µg/mL (≈ 60.2 µM); MIC (Candida albicans; [11]): > 256 µg/mL; MIC (Candida albicans; [12]): 1 µg/mL (≈ 1.88 µM); MIC (Candida albicans; [13]): 16 µg/mL (≈ 30.1 µM) |
| Clc1ccc(COC(Cn2ccnc2)c2ccc(Cl)cc2Cl)c(Cl)c1 (centres unmarked) [Miconazole, reference compound] | – | – | MIC (Candida albicans; [2]): > 256 µg/mL; MIC (Candida albicans; [3]): > 256 µg/mL; MIC (Candida albicans; [4]): > 256 µg/mL; MIC (Candida albicans; [5]): > 256 µg/mL; MIC (Candida albicans; [6]): > 256 µg/mL; MIC (Candida albicans; [7]): > 256 µg/mL; MIC (Candida albicans; [8]): > 256 µg/mL; MIC (Candida albicans; [9]): > 256 µg/mL; MIC (Candida albicans; [10]): 128 µg/mL (≈ 308 µM); MIC (Candida albicans; [11]): > 256 µg/mL; MIC (Candida albicans; [12]): 128 µg/mL (≈ 308 µM); MIC (Candida albicans; [13]): > 256 µg/mL |
| CCCCCCCCC(=O)N[C@@H](CCCCN)C(=O)N[C@@H](Cc1ccccc1)C(=O)N[C@@H](CCCCN)C(=O)N[C@@H](Cc1c[nH]c2ccccc12)C(=O)N1CCC[C@H]1C(=O)N[C@@H](Cc1c[nH]c2ccccc12)C(N)=O [compound 70] (Nonanoyl-KFKWPW-NH2) | – | – | Minimal Inhibitory Concentrations (Mics) (Pseudomonas aeruginosa): 32-64 Mg/Ml |
| CCCCCCCCCCC(=O)N[C@@H](CCCCN)C(=O)N[C@@H](Cc1ccccc1)C(=O)N[C@@H](CCCCN)C(=O)N[C@@H](Cc1c[nH]c2ccccc12)C(=O)N1CCC[C@H]1C(=O)N[C@@H](Cc1c[nH]c2ccccc12)C(N)=O [compound 79] (Undecanoyl-KFKWPW-NH2) | – | – | Minimal Inhibitory Concentrations (Mics) (Pseudomonas aeruginosa): 8-16 Mg/Ml; Minimal Inhibitory Concentrations (Mics) (Candida albicans): 4-8 Mg/Ml |
| Cap-KFKWPW-NH2 (not fully specified; printed as Cap-KFKWPW-NH2; reading uncertain) [SEQ ID NO: 71] | – | – | MIC, lipid length SAR [1]: 128; MIC, lipid length SAR (Pseudomonas aeruginosa): >128 |
| FAKLAK-NH2 [SEQ ID NO: 20] | >128 | >128 | – |
| FALKKL-NH2 [SEQ ID NO: 14] | >128 | >128 | – |
| FKFKPV-NH2 [SEQ ID NO: 12] | >128 | >128 | – |
| FKLAPW-NH2 [SEQ ID NO: 16] | >128 | >128 | – |
| FPWKFK-NH2 [SEQ ID NO: 34] | >128 | >128 | – |
| FRHFRW-NH2 [SEQ ID NO: 18] | >128 | >128 | – |
| H-RWRWPW-NH2 [compound 4] | – | – | Minimal Inhibitory Concentrations (Mics) (Candida albicans): 64-128 Mg/Ml |
| Hep-KFKWPW-NH2 (Heptanoyl-KFKWPW-NH2; SMILES CCCCCCC(=O)N[C@@H](CCCCN)C(=O)N[C@@H](Cc1ccccc1)C(=O)N[C@@H](CCCCN)C(=O)N[C@@H](Cc1c[nH]c2ccccc12)C(=O)N1CCC[C@H]1C(=O)N[C@@H](Cc1c[nH]c2ccccc12)C(N)=O) [SEQ ID NO: 69] | – | – | MIC, lipid length SAR [1]: 128; MIC, lipid length SAR (Pseudomonas aeruginosa): 128 |
| KFFWPF-NH2 [SEQ ID NO: 36] | >128 | >128 | – |
| KFKSFK-NH2 [SEQ ID NO: 21] | >128 | >128 | – |
| KFVWPW-NH2 [SEQ ID NO: 32] | >128 | >128 | – |
| KLAKLL-NH2 [SEQ ID NO: 27] | >128 | >128 | – |
| KPVKFK-NH2 [SEQ ID NO: 31] | >128 | >128 | – |

| Compound | Anti-microbial activity (MIC) [1] | Anti-microbial activity (MIC) (Escherichia coli UB1005) | other results |
| --- | --- | --- | --- |
| KPVWPF-NH2 [SEQ ID NO: 35] | >128 | >128 | – |
| KPVWPW-NH2 [SEQ ID NO: 30] | >128 | >128 | – |
| KPWKFK-NH2 [SEQ ID NO: 29] | >128 | >128 | – |
| KWKFKF-NH2 [SEQ ID NO: 23] | >128 | >128 | – |
| KWKKLA-NH2 [SEQ ID NO: 22] | >128 | >128 | – |
| KWKKPV-NH2 [SEQ ID NO: 17] | >128 | >128 | – |
| KWKVFK-NH2 [SEQ ID NO: 24] | >128 | >128 | – |
| LAKLAK-NH2 [SEQ ID NO: 28] | >128 | >128 | – |
| LLKWPW-NH2 [SEQ ID NO: 33] | >128 | >128 | – |
| Myr-KFKWPW-NH2 (Myristoyl-KFKWPW-NH2; SMILES CCCCCCCCCCCCCC(=O)N[C@@H](CCCCN)C(=O)N[C@@H](Cc1ccccc1)C(=O)N[C@@H](CCCCN)C(=O)N[C@@H](Cc1c[nH]c2ccccc12)C(=O)N1CCC[C@H]1C(=O)N[C@@H](Cc1c[nH]c2ccccc12)C(N)=O) [SEQ ID NO: 77] | – | – | MIC, lipid length SAR [1]: >128; MIC, lipid length SAR (Pseudomonas aeruginosa): 64-128 |
| Non-KFKWPW-NH2 (Nonanoyl-KFKWPW-NH2; SMILES CCCCCCCCC(=O)N[C@@H](CCCCN)C(=O)N[C@@H](Cc1ccccc1)C(=O)N[C@@H](CCCCN)C(=O)N[C@@H](Cc1c[nH]c2ccccc12)C(=O)N1CCC[C@H]1C(=O)N[C@@H](Cc1c[nH]c2ccccc12)C(N)=O) [SEQ ID NO: 70] | – | – | MIC, lipid length SAR [1]: 16; MIC, lipid length SAR (Pseudomonas aeruginosa): 32-64 |
| Oct-kfkwpw-HN2 (Octanoyl-[dK][dF][dK][dW][dP][dW]-NH2; SMILES CCCCCCCC(=O)N[C@H](CCCCN)C(=O)N[C@H](Cc1ccccc1)C(=O)N[C@H](CCCCN)C(=O)N[C@H](Cc1c[nH]c2ccccc12)C(=O)N1CCC[C@@H]1C(=O)N[C@H](Cc1c[nH]c2ccccc12)C(N)=O) [SEQ ID NO: 81] | – | – | Activity (MIC) against P. acnes (P. acnes; ATCC 6921): 4; Activity (MIC) against P. acnes (P. acnes; ATCC 6922): 8; Activity (MIC) against P. acnes (P. acnes; ATCC 6923): 8; Activity (MIC) against P. acnes (P. acnes; ATCC 11828): 8; Activity (MIC) against P. acnes (P. acnes; ATCC 12930): 2; Activity (MIC) against P. acnes (P. acnes; ATCC 25746): 0.25; Activity (MIC) against P. acnes (P. acnes; ATCC 29399): 8; Activity (MIC) against P. acnes (P. acnes; ATCC 33179): 16; Activity (MIC) against P. acnes (P. acnes; ATCC 49929): 0.125; Activity (MIC) against P. acnes (P. acnes; ATCC 51277): 8 |
| RKTWPW-NH2 [SEQ ID NO: 15] | >128 | >128 | – |
| SEQ ID NO:56 (Octanoyl-KWKWFW-NH2; SMILES CCCCCCCC(=O)N[C@@H](CCCCN)C(=O)N[C@@H](Cc1c[nH]c2ccccc12)C(=O)N[C@@H](CCCCN)C(=O)N[C@@H](Cc1c[nH]c2ccccc12)C(=O)N[C@@H](Cc1ccccc1)C(=O)N[C@@H](Cc1c[nH]c2ccccc12)C(N)=O) | – | – | ability to kill S. aureus in serum (in words) (MRSA): does not perform well in biological environments |
| VAKKWK-NH2 [SEQ ID NO: 25] | >128 | >128 | – |
| VAKLAK-NH2 [SEQ ID NO: 19] | >128 | >128 | – |
| VKVKPV-NH2 [SEQ ID NO: 13] | >128 | >128 | – |

— patent US7407940B2, “Antimicrobial hexapeptides” (Helix BioMedix Inc., priority 2005, dated 2008)
